Source: ChEMBL document CHEMBL2439971, “Design, synthesis and antiproliferative evaluation of fluorenone analogs with DNA topoisomerase I inhibitory properties” (Bioorg Med Chem, 2013)
Activity calls are given as the source filed them. No cut-off for these calls is given here.

What was measured:
RXF 393 = experiment: Cytotoxicity against human RXF393 cells at 10 uM after 48 hrs by sulforhodamine B assay relative to control; assay type: functional
OVCAR-4 = experiment: Cytotoxicity against human OVCAR4 cells at 10 uM after 48 hrs by sulforhodamine B assay relative to control; assay type: functional
NCI/ADR-RES = experiment: Cytotoxicity against human NCI/ADR-RES cells at 10 uM after 48 hrs by sulforhodamine B assay relative to control; assay type: functional
SNB-19 = experiment: Cytotoxicity against human SNB19 cells at 10 uM after 48 hrs by sulforhodamine B assay relative to control; assay type: functional
SF-539 = experiment: Cytotoxicity against human SF539 cells at 10 uM after 48 hrs by sulforhodamine B assay relative to control; assay type: functional
HCT-15 = experiment: Cytotoxicity against human HCT15 cells at 10 uM after 48 hrs by sulforhodamine B assay relative to control; assay type: functional
OVCAR-8 = experiment: Cytotoxicity against human OVCAR8 cells at 10 uM after 48 hrs by sulforhodamine B assay relative to control; assay type: functional
MDA-MB-435 = experiment: Cytotoxicity against human MDA-MB-435 cells at 10 uM after 48 hrs by sulforhodamine B assay relative to control; assay type: functional
ACHN = experiment: Cytotoxicity against human ACHN cells at 10 uM after 48 hrs by sulforhodamine B assay relative to control; assay type: functional
PC-3 [1] = experiment: Cytotoxicity against human PC3 cells at 10 uM after 48 hrs by sulforhodamine B assay relative to control; assay type: functional
SK-MEL-2 = experiment: Cytotoxicity against human SK-MEL-2 cells at 10 uM after 48 hrs by sulforhodamine B assay relative to control; assay type: functional
K562 = experiment: Cytotoxicity against human K562 cells at 10 uM after 48 hrs by sulforhodamine B assay relative to control; assay type: functional
LOX IMVI = experiment: Cytotoxicity against human LOXIMVI cells at 10 uM after 48 hrs by sulforhodamine B assay relative to control; assay type: functional
[2] = Cytotoxicity against human EKVX cells at 10 uM after 48 hrs by sulforhodamine B assay relative to control; assay type: functional
MOLT-4 = experiment: Cytotoxicity against human MOLT4 cells at 10 uM after 48 hrs by sulforhodamine B assay relative to control; assay type: functional
786-0 = experiment: Cytotoxicity against human 786-0 cells at 10 uM after 48 hrs by sulforhodamine B assay relative to control; assay type: functional
MCF7 = experiment: Cytotoxicity against human MCF7 cells at 10 uM after 48 hrs by sulforhodamine B assay relative to control; assay type: functional
HOP-62 = experiment: Cytotoxicity against human HOP62 cells at 10 uM after 48 hrs by sulforhodamine B assay relative to control; assay type: functional
SK-MEL-5 = experiment: Cytotoxicity against human SK-MEL-5 cells at 10 uM after 48 hrs by sulforhodamine B assay relative to control; assay type: functional
UACC-257 = experiment: Cytotoxicity against human UACC257 cells at 10 uM after 48 hrs by sulforhodamine B assay relative to control; assay type: functional
Homo sapiens = species: Homo sapiens; experiment: Inhibition of telomerase (unknown origin) at 10 uM TRAP assay
HL-60(TB) = experiment: Cytotoxicity against human HL-60(TB) cells at 10 uM after 48 hrs by sulforhodamine B assay relative to control; assay type: functional
CAKI-1 = experiment: Cytotoxicity against human CAKI-1 cells at 10 uM after 48 hrs by sulforhodamine B assay relative to control; assay type: functional
SF-268 = experiment: Cytotoxicity against human SF268 cells at 10 uM after 48 hrs by sulforhodamine B assay relative to control; assay type: functional
IGROV-1 = experiment: Cytotoxicity against human IGROV1 cells at 10 uM after 48 hrs by sulforhodamine B assay relative to control; assay type: functional
PC-3 [3] = experiment: Cytotoxicity against human PC3 cells after 48 hrs by sulforhodamine B assay; assay type: functional, cell-based; details: PC-3, 48 h
HT-29 = experiment: Cytotoxicity against human HT-29 cells at 10 uM after 48 hrs by sulforhodamine B assay relative to control; assay type: functional
RPMI-8226 = experiment: Cytotoxicity against human RPMI8226 cells at 10 uM after 48 hrs by sulforhodamine B assay relative to control; assay type: functional
NCI-H23 = experiment: Cytotoxicity against human NCI-H23 cells at 10 uM after 48 hrs by sulforhodamine B assay relative to control; assay type: functional
M14 = experiment: Cytotoxicity against human M14 cells at 10 uM after 48 hrs by sulforhodamine B assay relative to control; assay type: functional
SNB-75 = experiment: Cytotoxicity against human SNB75 cells at 10 uM after 48 hrs by sulforhodamine B assay relative to control; assay type: functional
TK-10 = experiment: Cytotoxicity against human TK10 cells at 10 uM after 48 hrs by sulforhodamine B assay relative to control; assay type: functional
KM12 = experiment: Cytotoxicity against human KM12 cells at 10 uM after 48 hrs by sulforhodamine B assay relative to control; assay type: functional
HCT-116 = experiment: Cytotoxicity against human HCT116 cells at 10 uM after 48 hrs by sulforhodamine B assay relative to control; assay type: functional
HCC 2998 = experiment: Cytotoxicity against human HCC2998 cells at 10 uM after 48 hrs by sulforhodamine B assay relative to control; assay type: functional
DU-145 = experiment: Cytotoxicity against human DU145 cells at 10 uM after 48 hrs by sulforhodamine B assay relative to control; assay type: functional
MDA-MB-231 = experiment: Cytotoxicity against human MDA-MB-231 cells at 10 uM after 48 hrs by sulforhodamine B assay relative to control; assay type: functional
UO-31 = experiment: Cytotoxicity against human UO31 cells at 10 uM after 48 hrs by sulforhodamine B assay relative to control; assay type: functional
SR = experiment: Cytotoxicity against human SR cells at 10 uM after 48 hrs by sulforhodamine B assay relative to control; assay type: functional
[4] = Cytotoxicity against human Hs 578T cells at 10 uM after 48 hrs by sulforhodamine B assay relative to control; assay type: functional
SN12C = experiment: Cytotoxicity against human SN12C cells at 10 uM after 48 hrs by sulforhodamine B assay relative to control; assay type: functional
CCRF-CEM = experiment: Cytotoxicity against human CCRF-CEM cells at 10 uM after 48 hrs by sulforhodamine B assay relative to control; assay type: functional
SW-620 = experiment: Cytotoxicity against human SW620 cells at 10 uM after 48 hrs by sulforhodamine B assay relative to control; assay type: functional
Malme-3M = experiment: Cytotoxicity against human MALME-3M cells at 10 uM after 48 hrs by sulforhodamine B assay relative to control; assay type: functional
BT-549 = experiment: Cytotoxicity against human BT549 cells at 10 uM after 48 hrs by sulforhodamine B assay relative to control; assay type: functional
A549 = experiment: Cytotoxicity against human A549 cells at 10 uM after 48 hrs by sulforhodamine B assay relative to control; assay type: functional
T47D = experiment: Cytotoxicity against human T47D cells at 10 uM after 48 hrs by sulforhodamine B assay relative to control; assay type: functional
U-251 = experiment: Cytotoxicity against human U251 cells at 10 uM after 48 hrs by sulforhodamine B assay relative to control; assay type: functional
NCI-H522 = experiment: Cytotoxicity against human NCI-H522 cells at 10 uM after 48 hrs by sulforhodamine B assay relative to control; assay type: functional
UACC-62 = experiment: Cytotoxicity against human UACC62 cells at 10 uM after 48 hrs by sulforhodamine B assay relative to control; assay type: functional
MDA-MB-468 = experiment: Cytotoxicity against human MDA-MB-468 cells at 10 uM after 48 hrs by sulforhodamine B assay relative to control; assay type: functional
COLO 205 = experiment: Cytotoxicity against human COLO205 cells at 10 uM after 48 hrs by sulforhodamine B assay relative to control; assay type: functional
NCI-H460 = experiment: Cytotoxicity against human NCI-H460 cells at 10 uM after 48 hrs by sulforhodamine B assay relative to control; assay type: functional
SK-MEL-28 = experiment: Cytotoxicity against human SK-MEL-28 cells at 10 uM after 48 hrs by sulforhodamine B assay relative to control; assay type: functional
NCI-H226 = experiment: Cytotoxicity against human NCI-H226 cells at 10 uM after 48 hrs by sulforhodamine B assay relative to control; assay type: functional
OVCAR-5 = experiment: Cytotoxicity against human OVCAR5 cells at 10 uM after 48 hrs by sulforhodamine B assay relative to control; assay type: functional
SF-295 = experiment: Cytotoxicity against human SF295 cells at 10 uM after 48 hrs by sulforhodamine B assay relative to control; assay type: functional
OVCAR-3 = experiment: Cytotoxicity against human OVCAR3 cells at 10 uM after 48 hrs by sulforhodamine B assay relative to control; assay type: functional
NCI-H322M = experiment: Cytotoxicity against human NCI-H322M cells at 10 uM after 48 hrs by sulforhodamine B assay relative to control; assay type: functional

SMILES: CCCSCC(=O)Nc1ccc2c(c1)C(=O)c1cc(NC(=O)CSCCC)ccc1-2
- Activity (RXF 393): 73.43%
- Activity (OVCAR-4): 106.85%
- Activity (NCI/ADR-RES): 100.59%
- Activity (SNB-19): 102.55%
- Activity (SF-539): 77.18%
- Activity (HCT-15): 86.05%
- Activity (OVCAR-8): 122.23%
- Activity (MDA-MB-435): 102.08%
- Activity (ACHN): 110.7%
- Activity (PC-3 [1]): 94.41%
- Activity (SK-MEL-2): 106.67%
- Activity (K562): 84.45%
- Activity (LOX IMVI): 90.88%
- Activity [2]: 100.02%
- Activity (MOLT-4): 82.96%
- Activity (786-0): 88.03%
- Activity (MCF7): 92.24%
- Activity (HOP-62): 106.36%
- Activity (SK-MEL-5): 91.99%
- Activity (UACC-257): 137.38%
- inhibition (Homo sapiens): inactive
- Activity (HL-60(TB)): 99.03%
- Activity (CAKI-1): 116.5%
- Activity (SF-268): 121.78%
- Activity (IGROV-1): 103.61%
- IC50 (PC-3 [3]): > 30 µM
- Activity (HT-29): 93.31%
- Activity (RPMI-8226): 45.12%
- Activity (NCI-H23): 98.99%
- Activity (M14): 99.86%
- Activity (SNB-75): 88.25%
- Activity (TK-10): 109.43%
- Activity (KM12): 90.34%
- Activity (HCT-116): 97.47%
- Activity (HCC 2998): 101.22%
- Activity (DU-145): 111.27%
- Activity (MDA-MB-231): 110.09%
- Activity (UO-31): 104.91%
- Activity (SR): 76.63%
- Activity [4]: 92.42%
- Activity (SN12C): 102.58%
- Activity (CCRF-CEM): 90.86%
- Activity (SW-620): 117.49%
- Activity (Malme-3M): 107%
- Activity (BT-549): 79.13%
- Activity (A549): 99.19%
- Activity (T47D): 94.56%
- Activity (U-251): 82.28%
- Activity (NCI-H522): 80.15%
- Activity (UACC-62): 107.45%
- Activity (MDA-MB-468): 98.19%
- Activity (COLO 205): 111.93%
- Activity (NCI-H460): 110.9%
- Activity (SK-MEL-28): 90.58%
- Activity (NCI-H226): 110.7%
- Activity (OVCAR-5): 106.86%
- Activity (SF-295): 69.6%
- Activity (OVCAR-3): 108.65%
- Activity (NCI-H322M): 84.33%
